# In patent US5424329A, “Indole-2-carboxamides as inhibitors of cell adhesion” (Warner-Lambert Company, priority 1993, dated 1995):
# pIC50: −log10 of the molar value. Counter-ions that a name gives are not always drawn.
# Columns and labels:
# [1] = test system: HIV activation in OM-10.1 cells; test: Inhibition of activation of latent HIV in OM-10.1 cells; assay type: cell-based, HIV-1; settings: Human immunodeficiency virus 1, chronically HIV-infected promyelocytic clone
# Text: The cellular pathways involved in mediating the activating signal from the plasma membrane to the integrated virus, resulting in HIV-1 expression, are much less clear. Recently, the development of a reliable and simple system for evaluating compounds that could prevent activation of latent HIV was reported at the National […] (NCDDG)/AIDS by P. Feorino, S. T. Butera, T. M. Folks, and R. F. Schinazi, Nov. 3-7, 1991. The assay system employed the OM-10.1 cell line, a unique chronically-infected promyelocytic clone which remains CD4+ until HIV-1 activation with tumor necrosis factor-α. The expression of CD4+ on the cell surface and the activity of reverse transcriptase are used as markers for quantitating viral expression. Alternatively, other HIV markers, such as protease activity, which are known to those of skill in the art can be used. OM-10.1 cells remain CD4^+ until viral activation and respond to tumor necrosis factor induction, and therefore, these cultures are used to conveniently and rapidly examine pharmacologics for an ability to prevent CD4^+ down modulation (decrease in expression of CD4^+ on the cell surface) and HIV-1 expression.
# [2] = test system: human neutrophil adhesion to TNF-α stimulated human umbilical vein endothelial cells (HUVEC); test: Inhibition of human neutrophil adhesion to TNF-stimulated human umbilical vein endothelial cells (modified method, calcein-AM fluorescence); assay type: cell-based; settings: for pIC50: 4 hours, IC50 from 33.3, 10.0, 3.3 and 1.0 μM
# Procedure: MODIFIED METHOD FOR DETERMINING THE INHIBITION OF HUMAN NEUTROPHIL ADHESION TO TNF-α, IL-1α, AND LPS STIMULATED
# HI/MAN UMBILICAL VEIN ENDOTHELIAL CELLS BY
# 3-SUBSTITUTED-INDOLE-2-CARBOXAMIDES
# Second passage HUVEC (Clonetics Corporation, San Diego, Calif., CC-2617) were seeded into Corning (Corning glass works, Corning, N.Y.) 96-well cell culture plates at approximately 5×10^3 cells/well and grown to confluency in supplemented endothelial basal medium (EBM, MCDB-131, Clonetics, 10 ng/mL EGF, 1 μg/mL hydrocortisone, 0.4% bovine brain extract, 5% Fetal Bovine Serum). One day prior to running the assay, typically 3 days postseeding, the cultures were re-fed with 0.2 mL/well supplemented EBM (S-EBM).
# Preparation of Test Compounds
# Test compounds were prepared as 10 mL stock solutions at a concentration of 1.0 mM. The compounds were initially solubilized in 0.1 mL DMSO followed by the addition of 9.9 mL S-EBM. The drug preparations were then diluted in one step to a concentration of 66.6 μM. Solubilizations and dilutions were performed in polystyrene containers.
# Isolation of Human Neutrophils
# Human neutrophils were isolated from anticoagulant-treated venous blood obtained from healthy volunteers according to the method of Ferrante and Thong, J. Immunol. Methods 1978;24:389-393. The cell preparations consisted of greater than 98% neutrophils.
# Recombinant human tumor necrosis factor-α (TNF, Genzyme, Boston, Mass., code TNF-H) was prepared at 400 U/mL in S-EBM. Stock TNF was prepared to 20,000 U/mL in Delbecco's phosphate buffered saline (PBS, Gibco, Grand Island, N.Y.) plus 0.1% BSA and stored at -70° C. HUVEC were washed one time with 0.2 mL warm unsupplemented EBM and then stimulated for 4 hours at 37° C. with 200 U/mL TNF in the presence of 33.3 μM test compound. This was accomplished by adding 0.1 mL of 400 U/mL TNF and 0.1 mL 66.6 μM test compound. These additions were done slowly as to not disrupt the HUVEC monolayer. Each compound was tested in six wells. Unstimulated (vehicle control) and TNF-stimulated without test compound treatments were also run in each plate.
# One hour prior to adding the neutrophils to the HUVEC, neutrophils (5×10^6 /mL) were labeled for 30 minutes at 37° C. with 5 μM calcein-AM (Molecular Probes, Eugene, Oreg.) in Hanks' balanced salt solution plus 0.45% BSA. Stock calcein was prepared to 5 mM in anhydrous DMSO and stored desiccated at -20° C. At the end of the incubation the cells were washed two times in cold HBSS and resuspended to a final concentration of 1×10^6 cells/mL in unsupplemented EBM.
# Addition of Neutrophils to HUVEC
# At the end of the 4-hour stimulation and immediately prior to the addition of the neutrophils to the HUVEC monolayer, the plates were washed with 0.2 mL warm unsupplemented EBM to remove TNF and drug. Neutrophils (1×10^5 cells) were slowly added to each of the treated wells and incubated for 30 minutes at 37° C. At the end of the incubation the plates were washed two times with 0.2 mL warm unsupplemented EBM followed by a final addition of 0.1 mL for plate scanning.
# Determination of Relative Fluorescence
# The relative fluorescence was determined using a Millipore Cytofluor 2300 system (excitation=480, emission=530, sensitivity=4). Each file was saved on disk as a comma separated value (.CSV) file for import into a spreadsheet.
# Results were expressed as means of percent inhibition of TNF-stimulated adherence. A Quattro Pro (Borland, Scotts Valley, Calif.) spreadsheet has been programmed to accept the raw data and perform all necessary calculations. [formula]
# Linear regression analysis of the means of the inhibition values were used to determine the IC50.
# [3] = test system: human neutrophil adhesion to TNF-α, IL-1α, and LPS-stimulated human umbilical vein endothelial cells (HUVEC); test: Inhibition of human neutrophil adhesion to TNF-α, IL-1α, and LPS-stimulated human umbilical vein endothelial cells (chromium assay); assay type: cell-based
# Text: METHOD FOR DETERMINING THE INHIBITION OF HUMAN NEUTROPHIL ADHESION TO TNF-α, IL-1α, AND LPS-STIMULATED HUMAN UMBILICAL VEIN ENDOTHELIAL
# CELLS BY 3-SUBSTITUTED-INDOLE-2-CARBOXAMIDES
# Neutrophils were isolated from anticoagulant-treated venous blood obtained from healthy human volunteers according to the method of Ferrante and Thong (J. Immunol. Methods 1978;24:389-393). The cell preparations consisted of greater than 98% neutrophils.
# Second passage human umbilical vein endothelial cells (HUVEC) (Clonetics, San Diego, Calif.) were seeded into Falcon 24-well cell culture plates (Becton Dickinson, Lincoln Park, N.J.) at approximately 2×10^4 cells per well. The cells were grown to confluent monolayers in endothelial basal medium (EBM, Clonetics) supplemented with 5% fetal calf serum (Hyclone Laboratories, Logan, Utah), 10 ng/mL EGF, 1μg/mL hydrocortisone, 0.4% bovine brain extract (Clonetics) in 5% CO2 at 37° C. […]
# Stimulation of HUVEC with tumor necrosis factor-α (TNF-α) (Genzyme, Cambridge, Mass.), interleukin (IL-1α) (Genzyme) or E. coli 0111:B4 lipopolysaccharide (LPS) (Sigma) in the presence or absence of drug was initiated 4 hours prior to the addition of neutrophils. […] Lysates were collected and the radioactivity in each well was determined by gamma ray spectroscopy.
# [4] = test system: activation of HIV-1 in OM-10.1 cells; settings: poster NCDDG/AIDS 1991; cited from earlier work
molecule,measurement,setting,value
"COc1ccc2c(c1)c(OC(C)C)c(C(N)=O)n2C [Example 1, 5-Methoxy-1-methyl-3-(1-methylethoxy)-1H-indole-2-carboxamide]",pIC50,[1],6.10
same,pIC50,[2],5.00
"CC(C)Sc1c(C(N)=O)n(C)c2ccc(OCc3ccccc3)cc12 [Example 23, 1-Methyl-3-[(1-methylethyl)thio]-5-(phenylmethoxy)-1H-indole-2-carboxamide]",inhibition at 33 µM,[2],15%
"COc1ccc2c(c1)c(SC)c(C(N)=O)n2C [Example 6, 5-Methoxy-1-methyl-3-(methylthio)-1H-indole-2-carboxamide]",inhibition at 33 µM,[2],72%
"COc1ccc2c(c1)c(OC(C)C)c(C(N)=O)n2-c1ccccc1 [Example 16, 5-Methoxy-3-(1-methylethoxy)-1-phenyl-1H-indole-2-carboxamide]",inhibition at 100 µM,[3],35%
"COc1ccc2c(c1)c(SC(C)C)c(C(N)=O)n2C [Example 26, 5-Methoxy-1-methyl-3-[(1-methylethyl)thio]-1H-indole-2-carboxamide]",pIC50,[2],4.54
"Cc1cn([C@H]2C[C@H](F)[C@@H](CO)O2)c(=O)[nH]c1=O [3'-fluoro-3'-deoxythymidine (FLT), 3'-fluoro-3'-deoxythymidine]",inhibition of the activation of HIV-1,[4],modest inhibitors
"COCn1c(C(N)=O)c(OC(C)C)c2cc(OC)ccc21 [Example 30, 5-Methoxy-1-methoxymethyl-3-(1-methylethoxy)-1H-indole-2-carboxamide]",pIC50,[2],4.47
CC(=O)N(O)CCCCCNC(=O)CCC(=O)N(O)CCCCCNC(=O)CCC(=O)N(O)CCCCCN [desferrioxamine],inhibition of the activation of HIV-1,[4],modest inhibitors
"CCN(CC)c1c(C(N)=O)[nH]c2ccc(OC)cc12 [Example 20, 3-(Diethylamino)-5-methoxy-1H-indole-2-carboxamide, monohydrochloride]",inhibition at 33 µM,[2],27%
"CCOc1c(C(N)=O)n(-c2ccccc2)c2ccc(OC)cc12 [Example 19, 3-Ethoxy-5-methoxy-1-phenyl-1H-indole-2-carboxamide]",inhibition at 33 µM,[2],13%
"COc1ccc2[nH]c(C(N)=O)c(OC(C)C)c2c1 [Example 18, 5-Methoxy-3-(1-methylethoxy)-1H-indole-2-carboxamide]",pIC50,[2],5.10
"CC(C)Sc1c(C(N)=O)n(C)c2ccc(O)cc12 [Example 29, 5-Hydroxy-1-methyl-3-[(1-methylethyl)thio]-1H-indole-2-carboxamide]",pIC50,[2],4.37
"CC(C)Oc1c(C(N)=O)n(C)c2ccc(O)cc12 [Example 15, 5-Hydroxy-1-methyl-3-(1-methylethoxy)-1H-indole-2-carboxamide]",pIC50,[2],5.15
interferon Y: interferon Y,inhibition of the activation of HIV-1,[4],modest inhibitors
